Assay results taken from ChEMBL document CHEMBL5120740, “Design, synthesis and biological evaluation of combretastatin A-4 sulfamate derivatives as potential anti-cancer agents” (RSC Med Chem, 2021).

Columns and labels:
[1] = system: MGC-803; experiment: Antiproliferative activity against human MGC-803 cells assessed as reduction in cell viability after 24 hrs by CCK-8 assay; assay type: functional, cell-based; conditions: MGC-803, 24 h
[2] = molecular target: Tubulin (Sus scrofa, UniProt P02554+P02550); experiment: Inhibition of pig brain tubulin polymerization by spectrophotometric method; assay type: tissue-based
[3] = system: HCT-116; experiment: Antiproliferative activity against human HCT-116 cells assessed as reduction in cell viability after 24 hrs by CCK-8 assay; assay type: functional, cell-based; conditions: HCT-116, 24 h
[4] = system: MKN-45; experiment: Antiproliferative activity against human MKN-45 cells assessed as reduction in cell viability after 24 hrs by CCK-8 assay; assay type: functional, cell-based; conditions: MKN-45, 24 h
[5] = system: HeLa; experiment: Antiproliferative activity against human HeLa cells assessed as reduction in cell viability after 24 hrs by CCK-8 assay; assay type: functional, cell-based
[6] = system: HepG2; experiment: Antiproliferative activity against human HepG2 cells assessed as reduction in cell viability after 24 hrs by CCK-8 assay; assay type: functional, cell-based; conditions: HepG2, 24 h
[7] = Inhibition of Arylsulfatase (unknown origin) using potassium p-nitrophenyl sulfate as substrate incubated for 5 mins; set-up: species or system Homo sapiens
[8] = system: MCF7; experiment: Antiproliferative activity against human MCF7 cells assessed as reduction in cell viability after 24 hrs by CCK-8 assay; assay type: functional, cell-based; conditions: MCF7, 24 h
[9] = Inhibition of bovine brain tubulin polymerization by spectrophotometric method; assay type: tissue-based, Bos taurus

Row | Structure (SMILES) | IC50 [1] [µM] | IC50 [2] [µM] | IC50 [3] [µM] | IC50 [4] [µM] | IC50 [5] [µM] | IC50 [6] [µM] | IC50 [7] [µM] | IC50 [8] [µM] | IC50 [9] [µM]
1 | C[C@]12CC[C@@H]3c4ccc(OS(N)(=O)=O)cc4CC[C@H]3[C@@H]1CCC2=O [EMATE] | 0.48 | 25.9 | 0.9 | 0.54 | 0.63 | 0.85 | 5.01 | 0.07 | –
2 | COc1cc(/C=C\c2cccc(OS(N)(=O)=O)c2)cc(OC)c1OC | 8.53 | > 100 | 9.5 | 15.3 | 16.3 | 9.36 | 0.47 | 11.1 | –
3 | COc1ccc(/C=C/c2cc(OC)c(OC)c(OC)c2)cc1NS(N)(=O)=O | 6.19 | – | 8.65 | 18.9 | 0.38 | 7.53 | – | 17.1 | –
4 | COc1cc(CCc2cccc(OS(N)(=O)=O)c2)cc(OC)c1OC | 17.6 | – | 52.5 | 25.7 | 27.1 | 12 | – | > 100 | –
5 | COc1ccc(CCc2cc(OC)c(OC)c(OC)c2)cc1NS(N)(=O)=O | 8.21 | – | 30.6 | 73.9 | 2.93 | 8.1 | – | 20.1 | –
6 | COc1ccc(/C=C\c2cc(OC)c(OC)c(OC)c2)cc1NS(N)(=O)=O | 0.5 | 86.2 | 3.29 | 9.56 | 0.27 | 0.75 | > 100 | 11.2 | –
7 | COc1cc(/C=C/c2ccc(OC(F)F)c(OS(N)(=O)=O)c2)cc(OC)c1OC | 9.24 | – | 12.8 | 13.8 | 8.42 | 5.54 | – | 13.8 | –
8 | COc1ccc(/C=C\c2cc(OC)c(OC)c(OC)c2)cc1OS(N)(=O)=O | 0.0047 | 6.6 | 0.005 | 0.0095 | 0.0061 | 0.0036 | 6.16 | 0.11 | –
9 | COc1ccc(/C=C/c2cc(OC)c(OC)c(OC)c2)cc1OS(N)(=O)=O | 2.98 | 55.7 | 1.57 | 10.5 | 4.5 | 0.87 | 12.9 | 5.44 | –
10 | CCOc1ccc(/C=C/c2cc(OC)c(OC)c(OC)c2)cc1OS(N)(=O)=O | 7.63 | – | 9.12 | 8.05 | 5.64 | 2.63 | – | 13.7 | –
11 | COc1ccc(CCc2cc(OC)c(OC)c(OC)c2)cc1OS(N)(=O)=O | 3.61 | > 100 | 2.63 | 11.9 | 9.04 | 1.06 | > 100 | 5.91 | –
12 | CCOc1ccc(/C=C\c2cc(OC)c(OC)c(OC)c2)cc1OS(N)(=O)=O | 0.27 | 3.1 | 0.55 | 0.32 | 0.48 | 0.41 | 90.2 | 0.3 | –
13 | COc1ccc(/C=C\c2cc(OC)c(OC)c(OC)c2)cc1O [COMBRETASTATIN A4] | 0.006 | – | 0.0047 | 0.0081 | – | 0.0029 | > 100 | 0.14 | –
14 | COc1cc2c(cc1O)CC[C@@H]1[C@@H]2CC[C@]2(C)[C@@H](O)CC[C@@H]12 [2-METHOXYESTRADIOL] | – | – | – | – | – | – | – | – | 40
15 | COc1cc(/C=C\c2ccc(OC(F)F)c(OS(N)(=O)=O)c2)cc(OC)c1OC | 9 | 72.6 | 9.11 | 12.5 | 7.82 | 4.81 | 4.64 | 0.29 | –
16 | CCOc1ccc(CCc2cc(OC)c(OC)c(OC)c2)cc1OS(N)(=O)=O | 3.59 | – | 10.2 | 7.67 | 2.93 | 3.65 | – | 14.8 | –
17 | COc1ccc(/C=C\c2cc(OC)c(OC)c(OC)c2)cc1OS(=O)(=O)N(C)C | 7.14 | 12.5 | 0.37 | 8.95 | 14.3 | 9.96 | > 100 | 11.1 | –
18 | COc1cc(/C=C/c2cccc(OS(N)(=O)=O)c2)cc(OC)c1OC | 27 | – | 40.3 | 25 | 19 | 11.8 | – | 27.4 | –
19 | COc1cc(CCc2ccc(OC(F)F)c(OS(N)(=O)=O)c2)cc(OC)c1OC | 23.3 | – | 26.5 | 71.4 | 35.6 | 15.9 | – | 52.7 | –
20 | CNS(=O)(=O)Oc1cc(/C=C\c2cc(OC)c(OC)c(OC)c2)ccc1OC | 0.0037 | 1.8 | 0.0113 | 0.0073 | 0.0034 | 0.0039 | > 100 | 0.53 | –
